Measurements as given in patent publication US3969521A, “Pharmaceutical compositions containing tetrahydroalstonine and method for treating circulation disorders” (Science Union et Cie, Societe Francaise de Recherche Medical, priority 1974, dated 1976).
“Also recorded” adds a separate entry of the source.

How the values were obtained:
[1] = test system: recovery of learned memories; assay: Recovery of learned memories after electroshock (aquatic maze crossing); assay type: in vivo, rat; conditions: for effect on the recovery of learned memory: rat, in vivo
Description: Effects of tetrahydroalstonine on the recovery of learned memories on rats.
Tetrahydroalstonine has been tested on lots of rats in order to determine how fast it allows the recovery of learned memories after supramaximal electroshock in comparision with Vincamine and Papaverine. These last compounds are known to be active on the circulation namely as vasodilating agents.
In this test, as described by C. Giurgea (J. Pharmacol. (Paris) 3 17 (1972)), the rats are submitted to a submaximal electroshock which causes a spatio-temporal desorientation. This syndrom is evidenced by the difficulties the tested animals encountered for crossing over a maze filled with cold water without any error, after they have been submitted to the electroshock. The rats have been previously trained to swimm through this maze and the training has been renewed four times for 2 days.
The electric shock was delivered by means of a Neurovar apparatus (ALVAR Electronics) the third day. 20 Minutes after the electro shock, each lot of rats is tested and the time for crossing over the maze is determined. Immediately after, the rats received the compound to be tested by intra oesophageal tubing. Each lot is then experienced four times, 1, 2, 3, and 4 hours after the electroshock.
The score of performances of each individual is recorded and every error during the crossing over noticed.
The compounds to be tested (papaverine, vincamine and tetrahydroalstonine) are given to the animals, suspended in an aqueous solution of carboxymethylcellulose and sorbitan monooleate.
Papaverine and vincamine were administered at dosis ranging from 1 to 20 mg/kg. Tetrahydroalstonine was administered at a dosis of 0.6 mg/kg, 6 mg/kg and 60 mg/kg.
A lot of rats received only the aqueous solvent under the same volume (0.5 ml/100 g animal) as controls.
Therein are reported for each lot of rats the number of errors and the average time for crossing over the maze during the 5 tests performed after the animals have been subjected to the electroshock.
The treatment has been given 20 mn after the electroshock, immediately
after the first crossing over

[2] = test system: analgetic effect of Morphine; assay: Analgetic effect of Morphine; conditions: in vivo
central nervous system = assay: Effects on the central nervous system; assay type: in vivo
[3] = 10 mg/kg P.O., 20 minutes (before treatment)
[4] = 10 mg/kg P.O., 20 minutes after electroshock (before treatment)
[5] = 20 mg/kg P.O., 20 minutes (before treatment)
[6] = 20 mg/kg P.O., 20 minutes after electroshock (before treatment)

Row | SMILES | a = variation of average number of errors as regard as the controls [1, 3] | E = average number of errors [1, 4] | T = average time for crossing over [1, 4] | E = average number of errors ([1]; 10 mg/kg P.O., 60 minutes) | T = average time for crossing over ([1]; 10 mg/kg P.O., 60 minutes) | a = variation of average number of errors as regard as the controls ([1]; 10 mg/kg P.O., 60 minutes) | E = average number of errors ([1]; 10 mg/kg P.O., 120 minutes) | T = average time for crossing over ([1]; 10 mg/kg P.O., 120 minutes) | a = variation of average number of errors as regard as the controls ([1]; 10 mg/kg P.O., 120 minutes) | E = average number of errors ([1]; 10 mg/kg P.O., 180 minutes) | T = average time for crossing over ([1]; 10 mg/kg P.O., 180 minutes) | a = variation of average number of errors as regard as the controls ([1]; 10 mg/kg P.O., 180 minutes) | E = average number of errors ([1]; 10 mg/kg P.O., 240 minutes) | T = average time for crossing over ([1]; 10 mg/kg P.O., 240 minutes) | a = variation of average number of errors as regard as the controls ([1]; 10 mg/kg P.O., 240 minutes) | effect on the recovery of learned memory (onset) ([1]; 20 mg/kg) | a = variation of average number of errors as regard as the controls [1, 5] | E = average number of errors [1, 6] | T = average time for crossing over [1, 6] | E = average number of errors ([1]; 20 mg/kg P.O., 60 minutes) | further results
1 | COc1ccc(Cc2nccc3cc(OC)c(OC)cc23)cc1OC [Papaverine] | + | 14,3 | 154,2 seconds | 7,3 | 75,5 seconds | - | 4,8 | 54,2 seconds | - | 4,7 | 49,0 seconds | - | 2,4 | 25,4 seconds | - | delayed | + | 14,0 | 150,7 seconds | 10,4 | time after which improvement in performance appeared statistically significant ([1]; 10 mg/kg): 240 mn; b = statistical value (student's test), number of errors ([1]; 10 mg/kg P.O., 240 minutes): 0,0005; time after which improvement in performance appeared statistically significant ([1]; 20 mg/kg): 180 mn; T = average time for crossing over ([1]; 20 mg/kg P.O., 60 minutes): 89,8 seconds; a = variation of average number of errors as regard as the controls ([1]; 20 mg/kg P.O., 60 minutes): +; E = average number of errors ([1]; 20 mg/kg P.O., 120 minutes): 5,6; T = average time for crossing over ([1]; 20 mg/kg P.O., 120 minutes): 53,4 seconds; a = variation of average number of errors as regard as the controls ([1]; 20 mg/kg P.O., 120 minutes): -; E = average number of errors ([1]; 20 mg/kg P.O., 180 minutes): 2,9; T = average time for crossing over ([1]; 20 mg/kg P.O., 180 minutes): 29,7 seconds; a = variation of average number of errors as regard as the controls ([1]; 20 mg/kg P.O., 180 minutes): -; b = statistical value (student's test), number of errors ([1]; 20 mg/kg P.O., 180 minutes): 0,005; E = average number of errors ([1]; 20 mg/kg P.O., 240 minutes): 3,0; T = average time for crossing over ([1]; 20 mg/kg P.O., 240 minutes): 32,8 seconds; a = variation of average number of errors as regard as the controls ([1]; 20 mg/kg P.O., 240 minutes): -; b = statistical value (student's test), number of errors ([1]; 20 mg/kg P.O., 240 minutes): 0,01; effect on the recovery of learned memory [1]: improving effect
2 | COC(=O)C1=CO[C@@H](C)[C@H]2CN3CCc4c([nH]c5ccccc45)[C@@H]3C[C@H]12 [Raubasine, reference compound] |  |  |  |  |  |  |  |  |  |  |  |  |  |  |  |  |  |  |  |  | effect on the analgetic effect of Morphine [2]: does not exert such effect; also recorded: does not increase the analgetic effects of morphine; effect on the central nervous system (central nervous system; 50 to 100 mg/kg perorally): merely a sedative; effect on the central nervous system (central nervous system; dosage not stated): merely endowed with sedative properties
3 | CC[C@]12CCCN3CCc4c(n(c5ccccc45)[C@@](O)(C(=O)OC)C1)[C@@H]32 [Vincamine] | - | 10,8 | 135,6 seconds | 7,2 | 82,7 seconds | - | 4,6 | 44,1 seconds | - | 5,6 | 52,8 seconds | + | 4,3 | 38,6 seconds | - | delayed | + | 14,3 | 124,5 seconds | 7,1 | number of mistakes ([1]; 10 mg/kg): did not show any decrease in the number of mistakes; performances ([1]; 10 mg/kg, after 2 hours): slight improvement; start of the improving effect after the administration ([1]; 20 mg/kg): 40 min; start of the improving effect after the electroshock ([1]; 20 mg/kg): 60 mn; T = average time for crossing over ([1]; 20 mg/kg P.O., 60 minutes): 58,4 seconds; a = variation of average number of errors as regard as the controls ([1]; 20 mg/kg P.O., 60 minutes): -; E = average number of errors ([1]; 20 mg/kg P.O., 120 minutes): 5,2; T = average time for crossing over ([1]; 20 mg/kg P.O., 120 minutes): 38,2 seconds; a = variation of average number of errors as regard as the controls ([1]; 20 mg/kg P.O., 120 minutes): -; E = average number of errors ([1]; 20 mg/kg P.O., 180 minutes): 2,5; T = average time for crossing over ([1]; 20 mg/kg P.O., 180 minutes): 22,1 seconds; a = variation of average number of errors as regard as the controls ([1]; 20 mg/kg P.O., 180 minutes): -; b = statistical value (student's test), number of errors ([1]; 20 mg/kg P.O., 180 minutes): 0,0005; E = average number of errors ([1]; 20 mg/kg P.O., 240 minutes): 3,2; T = average time for crossing over ([1]; 20 mg/kg P.O., 240 minutes): 24,2 seconds; a = variation of average number of errors as regard as the controls ([1]; 20 mg/kg P.O., 240 minutes): -; b = statistical value (student's test), number of errors ([1]; 20 mg/kg P.O., 240 minutes): 0,025; number of mistakes ([1]; 20 mg/kg, 3 and 4 hours after the electroshock): significantly decreased; effect on the recovery of learned memory [1]: improving effect
